Target: T1, human apelin receptor (Homo sapiens, UniProt P35414)
T1 construct: expressed in transfected cells
T1 sequence (P35414 1-380): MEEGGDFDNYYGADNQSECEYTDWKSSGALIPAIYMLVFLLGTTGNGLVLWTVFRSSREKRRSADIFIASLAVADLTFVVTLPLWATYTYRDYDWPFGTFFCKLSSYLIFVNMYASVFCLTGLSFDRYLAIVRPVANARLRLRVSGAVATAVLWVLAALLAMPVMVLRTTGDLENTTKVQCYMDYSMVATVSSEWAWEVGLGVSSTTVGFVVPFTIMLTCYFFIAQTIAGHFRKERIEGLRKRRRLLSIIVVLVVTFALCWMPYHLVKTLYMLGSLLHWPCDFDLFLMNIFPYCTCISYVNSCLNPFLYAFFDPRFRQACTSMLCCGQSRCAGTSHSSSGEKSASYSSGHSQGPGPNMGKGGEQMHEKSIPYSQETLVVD
Assay: Determination of agonism on the human apelin receptor by a calcium fluorescence assay (FLIPR)
Assay type: cell-based
Conditions: HEK293 cells stably transfected with human apelin receptor and Giaq protein, Fluo-4 calcium fluorescence, read-out: EC50 (APJ agonism)
In short: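 HEK293 cells stably co-expressing human apelin receptor and promiscuous Giaq, loaded 1 h at 37 °C with Fluo-4 (4 μM) in probenecid-containing Hepes buffer, pH 7.4. Compounds, at least 7 concentrations in triplicate, added in FLIPR Tetra; peak calcium fluorescence normalized to 1 μM apelin-13 as 100% to derive EC50.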

Structure (SMILES)	EC50 [nM]
CCC(CC)n1c(Cc2cccs2)nc2cc(C(=O)N[C@@H](CC(C)C)C(=O)N3CC(C(=O)O)C3)ccc21 [Example 411, 1-((S)-2-{[1-(1-Ethyl-propyl)-2-thiophen-2-ylmethyl-1H-benzoimidazole-5-carbonyl]-amino}-4-methyl-pentanoyl)-azetidine-3-carboxylic acid]	822
CCC(CC)n1c(Cc2cccs2)nc2cc(C(=O)N[C@H](Cc3nnn[nH]3)CC(C)C)ccc21 [Example 472, 1-(1-Ethyl-propyl)-2-thiophen-2-ylmethyl-1H-benzoimidazole-5-carboxylic acid [(S)-3-methyl-1-(1H-tetrazol-5-ylmethyl)-butyl]-amide]	38
CCC(CC)n1c(Cc2cccs2)nc2cc(C(=O)N[C@H](CC(=N)NO)CC(C)C)ccc21 [Example 473, 1-(1-Ethyl-propyl)-2-thiophen-2-ylmethyl-1H-benzoimidazole-5-carboxylic acid [(S)-1-(N-hydroxycarbamimidoylmethyl)-3-methyl-butyl]-amide]	173
CCC(CC)n1c(Cc2cccs2)nc2cc(C(=O)N[C@H](Cc3noc(-c4ccccc4)n3)CC(C)C)ccc21 [Example 474, 1-(1-Ethyl-propyl)-2-thiophen-2-ylmethyl-1H-benzoimidazole-5-carboxylic acid [(S)-3-methyl-1-(5-phenyl-[1,2,4]oxadiazol-3-ylmethyl)-butyl]-amide]	34500
CCC(CC)n1c(Cc2cccs2)nc2cc(C(=O)N[C@H](Cc3noc(C4CC4)n3)CC(C)C)ccc21 [Example 475, 1-(1-Ethyl-propyl)-2-thiophen-2-ylmethyl-1H-benzoimidazole-5-carboxylic acid [(S)-1-(5-cyclopropyl-[1,2,4]oxadiazol-3-ylmethyl)-3-methyl-butyl]-amide]	2820
CCC(CC)n1c(Cc2cccs2)nc2cc(C(=O)N[C@H](Cc3n[nH]c(C(F)(F)F)n3)CC(C)C)ccc21 [Example 476, 1-(1-Ethyl-propyl)-2-thiophen-2-ylmethyl-1H-benzoimidazole-5-carboxylic acid [(S)-3-methyl-1-(5-trifluoromethyl-1H-[1,2,4]triazol-3-ylmethyl)-butyl]-amide]	3950
CCCC(NC(=O)c1ccc2c(c1)nc(Cc1cccs1)n2C(CC)CC)c1ccccn1 (stereo not drawn) [Example 477, 1-(1-Ethyl-propyl)-2-thiophen-2-ylmethyl-1H-benzoimidazole-5-carboxylic acid (1-pyridin-2-yl-butyl)-amide]	2720
CCC(CC)n1c(Cc2cccs2)nc2cc(C(=O)NC(CC(C)C)c3cccnc3)ccc21 (stereo not drawn) [Example 478, 1-(1-Ethyl-propyl)-2-thiophen-2-ylmethyl-1H-benzoimidazole-5-carboxylic acid (3-methyl-1-pyridin-3-yl-butyl)-amide]	3150
CCC(CC)n1c(Cc2cccs2)nc2cc(C(=O)NC(CC(C)C)c3nccs3)ccc21 (stereo not drawn) [Example 479, 1-(1-Ethyl-propyl)-2-thiophen-2-ylmethyl-1H-benzoimidazole-5-carboxylic acid (3-methyl-1-thiazol-2-yl-butyl)-amide]	16900

Continued, values first:

EC50 [nM]	Structure (SMILES)
20000	CCC(CC)n1c(Cc2cccs2)nc2cc(C(=O)NC(CC(C)C)c3nc(C)c(C)s3)ccc21 (stereo not drawn) [Example 480, 1-(1-Ethyl-propyl)-2-thiophen-2-ylmethyl-1H-benzoimidazole-5-carboxylic acid [1-(4,5-dimethyl-thiazol-2-yl)-3-methyl-butyl]-amide]
3480	CCC(CC)n1c(Cc2cccs2)nc2cc(C(=O)NC(CC(C)C)c3nnc(C)o3)ccc21 (stereo not drawn) [Example 481, 1-(1-Ethyl-propyl)-2-thiophen-2-ylmethyl-1H-benzoimidazole-5-carboxylic acid [3-methyl-1-(5-methyl-[1,3,4]oxadiazol-2-yl)-butyl]-amide]
15700	CCC(CC)n1c(Cc2cccs2)nc2cc(C(=O)N[C@H](c3nnc(COC)[nH]3)C(C)C)ccc21 [Example 482, 1-(1-Ethyl-propyl)-2-thiophen-2-ylmethyl-1H-benzoimidazole-5-carboxylic acid [(S)-1-(5-methoxymethyl-2H-[1,2,4]triazol-3-yl)-2-methyl-propyl]-amide]
2080	CCC(CC)n1c(Cc2cccs2)nc2cc(C(=O)N[C@H](CSc3nnc[nH]3)CC(C)C)ccc21 [Example 483, 1-(1-Ethyl-propyl)-2-thiophen-2-ylmethyl-1H-benzoimidazole-5-carboxylic acid [(S)-3-methyl-1-(4H-[1,2,4]triazol-3-ylsulfanylmethyl)-butyl]-amide]
14	CCC(CC)n1c(Cc2cccs2)nc2cc(C(=O)N[C@@H](CC(C)C)CS(=O)(=O)c3nnc[nH]3)ccc21 [Example 484, 1-(1-Ethyl-propyl)-2-thiophen-2-ylmethyl-1H-benzoimidazole-5-carboxylic acid [(S)-3-methyl-1-(4H-[1,2,4]triazole-3-sulfonylmethyl)-butyl]-amide]
813	CCC(CC)n1c(Cc2cccs2)nc2cc(C(=O)N[C@@H](CC(C)C)CS(=O)(=O)NC)ccc21 [Example 485, 1-(1-Ethyl-propyl)-2-thiophen-2-ylmethyl-1H-benzoimidazole-5-carboxylic acid ((S)-3-methyl-1-methylsulfamoylmethyl-butyl)-amide]

From patent publication US9156796B2, “Benzoimidazole-carboxylic acid amide derivatives as APJ receptor modulators” (SANOFI, priority 2013, dated 2015)
